Experimental data: ChEMBL document CHEMBL1201862, “PubChem BioAssay data set” (2004)
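A five-concentration, 48-hour dose response in 96-well plates underlies each endpoint, interpolated linearly between surrounding concentrations. GI50: concentration for 50% inhibition of growth.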 The source made the active and inactive calls. Rule as the data show it: active = GI50 up to about 1.1 µM and inactive = higher.

What was measured:
Assay in all cases: DTP human tumour cell line panel, 48 h
SNB-78 = system: SNB-78
OVCAR-5 = system: OVCAR-5
HOP-62 = system: HOP-62
UACC-257 = system: UACC-257
UACC-62 = system: UACC-62
BT-549 = system: BT-549
MCF7 = system: MCF7
SNB-19 = system: SNB-19
SR = system: SR
TK-10 = system: TK-10
786-0 = system: 786-0
HOP-92 = system: HOP-92
SNB-75 = system: SNB-75
ACHN = system: ACHN
MDA-MB-231 = system: MDA-MB-231
IGROV-1 = system: IGROV-1
T47D = system: T47D
CAKI-1 = system: CAKI-1
COLO 205 = system: COLO 205
OVCAR-4 = system: OVCAR-4

SMILES	GI50 (SNB-78)	GI50 (OVCAR-5)	GI50 (HOP-62)	GI50 (UACC-257)	GI50 (UACC-62)	GI50 (BT-549)	GI50 (MCF7)	GI50 (SNB-19)	GI50 (SR)	GI50 (TK-10)	GI50 (786-0)	GI50 (HOP-92)	GI50 (SNB-75)	GI50 (ACHN)	GI50 (MDA-MB-231)	GI50 (IGROV-1)	GI50 (T47D)	GI50 (CAKI-1)	GI50 (COLO 205)	GI50 (OVCAR-4)
C1CCNCC1.S=C(S)N1CCCCC1	100 µM (inactive)	213 µM (inactive)	129 µM (inactive)	28.4 µM (inactive)	0.601 µM (active)	406 µM (inactive)	26.4 µM (inactive)	149 µM (inactive)	0.46 µM (active)	135 µM (inactive)	97.3 µM (inactive)	95.1 µM (inactive)	61.2 µM (inactive)	87.7 µM (inactive)	16.1 µM (inactive)	5.96 µM (inactive)	91 µM (inactive)	33.4 µM (inactive)		
COC(=O)C1=C(c2cc(OC)c(OC)c(OC)c2)OC(c2ccc3c(c2)OCO3)C1 (stereo unspecified)	87.3 µM (inactive)	64.4 µM (inactive)	35.7 µM (inactive)	54.3 µM (inactive)	5.05 µM (inactive)			42.5 µM (inactive)	5.38 µM (inactive)	80 µM (inactive)	35.2 µM (inactive)	24.8 µM (inactive)	39.4 µM (inactive)	26.3 µM (inactive)		2.12 µM (inactive)		22.6 µM (inactive)	12.8 µM (inactive)	40.5 µM (inactive)
CCOC(=O)CN1C(=O)c2cc([N+](=O)[O-])cc3cc([N+](=O)[O-])cc(c23)C1=O	4.2 µM (inactive)	> 100 µM (inactive)	> 100 µM (inactive)	73.8 µM (inactive)	22.8 µM (inactive)	> 28.6 µM (inactive)	> 84.7 µM (inactive)	> 83.4 µM (inactive)	1.45 µM (inactive)	> 100 µM (inactive)	48.8 µM (inactive)	> 77.8 µM (inactive)	84.3 µM (inactive)	40 µM (inactive)	45.4 µM (inactive)	> 66.1 µM (inactive)	> 100 µM (inactive)	30.5 µM (inactive)	24.7 µM (inactive)	> 100 µM (inactive)
c1ccc(C2(c3ccccc3)SSC3(S2)C2CC4CC(C2)CC3C4)cc1 (stereo unspecified)	> 100 µM (inactive)	> 100 µM (inactive)		> 100 µM (inactive)	> 100 µM (inactive)			> 100 µM (inactive)	> 59.2 µM (inactive)	> 100 µM (inactive)	> 100 µM (inactive)	> 100 µM (inactive)	> 100 µM (inactive)	> 100 µM (inactive)		> 100 µM (inactive)		> 100 µM (inactive)		> 100 µM (inactive)
Cc1cn(C2CC(OC3CCCCO3)C(CO)O2)c(=O)[nH]c1=O (stereo unspecified)	> 100 µM (inactive)	> 100 µM (inactive)	> 100 µM (inactive)	> 100 µM (inactive)				> 100 µM (inactive)	> 100 µM (inactive)	> 100 µM (inactive)	> 100 µM (inactive)	> 100 µM (inactive)		> 100 µM (inactive)		> 100 µM (inactive)			> 100 µM (inactive)	> 100 µM (inactive)
CC(C)C(/C=C/c1ccc(Br)cc1)=N\NC(N)=O	> 100 µM (inactive)	> 100 µM (inactive)	> 100 µM (inactive)	> 100 µM (inactive)	> 100 µM (inactive)			> 100 µM (inactive)	> 100 µM (inactive)	> 100 µM (inactive)	> 100 µM (inactive)	> 100 µM (inactive)	> 100 µM (inactive)	> 100 µM (inactive)		> 100 µM (inactive)		> 100 µM (inactive)	> 100 µM (inactive)	> 100 µM (inactive)
CNC(=S)NC1CCCCC1NC(=S)NC (stereo unspecified)	> 100 µM (inactive)	> 100 µM (inactive)	> 100 µM (inactive)		> 100 µM (inactive)			> 100 µM (inactive)	> 100 µM (inactive)		> 100 µM (inactive)	> 100 µM (inactive)	> 100 µM (inactive)	> 100 µM (inactive)		> 100 µM (inactive)		> 100 µM (inactive)	> 100 µM (inactive)	> 100 µM (inactive)
CN(C)CC1CCC/C1=N\O (stereo unspecified)	> 100 µM (inactive)	> 100 µM (inactive)	> 100 µM (inactive)	> 100 µM (inactive)	> 100 µM (inactive)				> 100 µM (inactive)	> 100 µM (inactive)	> 100 µM (inactive)	> 100 µM (inactive)	> 100 µM (inactive)	> 100 µM (inactive)		> 100 µM (inactive)		> 100 µM (inactive)	> 100 µM (inactive)	> 100 µM (inactive)
